Source: ChEMBL document CHEMBL4376820, “Homodimeric Tobramycin Adjuvant Repurposes Novobiocin as an Effective Antibacterial Agent against Gram-Negative Bacteria” (J Med Chem, 2019)
The source made the active and inactive calls.

How the values were obtained:
Acinetobacter baumannii [1] = assay: Antibacterial activity against novobiocin-resistant Acinetobacter baumannii ATCC 17978 mutant generated from seven serial passages by checkerboard assay; assay type: functional
Acinetobacter baumannii [2] = assay: Antibacterial activity against colistin-resistant Acinetobacter baumannii ATCC 17978 mutant generated from seven serial passages by checkerboard assay; assay type: functional
Acinetobacter baumannii [3] = assay: Antibacterial activity against novobiocin and test compound-resistant Acinetobacter baumannii ATCC 17978 mutant generated from seven serial passages in presence of novobiocin by checkerboard assay; assay type: functional
Acinetobacter baumannii [4] = assay: Antibacterial activity against wild type Acinetobacter baumannii ATCC 17978 by checkerboard assay; assay type: functional
Pseudomonas aeruginosa [5] = assay: Synergistic antibacterial activity against wild type Pseudomonas aeruginosa PAO1 assessed as potentiation of cefotaxime-induced antibacterial effect incubated for 18 hrs by checkerboard assay; assay type: functional, organism-based
Pseudomonas aeruginosa [6] = assay: Synergistic antibacterial activity against wild type Pseudomonas aeruginosa PAO1 assessed as potentiation of minocycline-induced antibacterial effect incubated for 18 hrs by checkerboard assay; assay type: functional, organism-based
Pseudomonas aeruginosa [7] = assay: Synergistic antibacterial activity against wild type Pseudomonas aeruginosa PAO1 assessed as potentiation of meropenem-induced antibacterial effect incubated for 18 hrs by checkerboard assay; assay type: functional, organism-based
HEK293 = assay: Cytotoxicity against human HEK293 cells at 50 uM incubated for 48 hrs by PrestoBlue dye based fluorescence assay; assay type: cell-based; conditions: hek293, 48 h
HepG2 = assay: Cytotoxicity against human HepG2 cells at 50 uM incubated for 48 hrs by PrestoBlue dye based fluorescence assay; assay type: cell-based; conditions: hepg2, 48 h
Erythrocyte = assay: Hemolytic activity against porcine erythrocytes assessed as hemoglobin release at 1024 ug/ml incubated for 1 hr by microplate reader analysis; assay type: ADME, cell-based, Sus scrofa; conditions: pig
[8] = Toxicity in Galleria mellonella larvae assessed as survivability at 200 mg/kg measured every 6 hrs for 72 hrs; assay type: organism-based; conditions: in vivo
Pseudomonas aeruginosa [9] = assay: Synergistic antibacterial activity against wild type Pseudomonas aeruginosa PAO1 assessed as potentiation of rifampicin-induced antibacterial effect incubated for 18 hrs by checkerboard assay; assay type: functional, organism-based
Pseudomonas aeruginosa [10] = assay: Synergistic antibacterial activity against wild type Pseudomonas aeruginosa PAO1 assessed as potentiation of doxycycline-induced antibacterial effect incubated for 18 hrs by checkerboard assay; assay type: functional, organism-based
Pseudomonas aeruginosa [11] = assay: Synergistic antibacterial activity against wild type Pseudomonas aeruginosa PAO1 assessed as potentiation of linezolid-induced antibacterial effect incubated for 18 hrs by checkerboard assay; assay type: functional, organism-based
Pseudomonas aeruginosa [12] = assay: Synergistic antibacterial activity against wild type Pseudomonas aeruginosa PAO1 assessed as potentiation of moxifloxacin-induced antibacterial effect incubated for 18 hrs by checkerboard assay; assay type: functional, organism-based
Pseudomonas aeruginosa [13] = assay: Synergistic antibacterial activity against wild type Pseudomonas aeruginosa PAO1 assessed as potentiation of ciprofloxacin-induced antibacterial effect incubated for 18 hrs by checkerboard assay; assay type: functional, organism-based
Pseudomonas aeruginosa [14] = assay: Synergistic antibacterial activity against wild type Pseudomonas aeruginosa PAO1 assessed as potentiation of levofloxacin-induced antibacterial effect incubated for 18 hrs by checkerboard assay; assay type: functional, organism-based
Pseudomonas aeruginosa [15] = assay: Synergistic antibacterial activity against wild type Pseudomonas aeruginosa PAO1 assessed as potentiation of aztreonam-induced antibacterial effect incubated for 18 hrs by checkerboard assay; assay type: functional, organism-based
Pseudomonas aeruginosa [16] = assay: Synergistic antibacterial activity against wild type Pseudomonas aeruginosa PAO1 assessed as potentiation of ceftazidime-induced antibacterial effect incubated for 18 hrs by checkerboard assay; assay type: functional, organism-based
Pseudomonas aeruginosa [17] = assay: Synergistic antibacterial activity against wild type Pseudomonas aeruginosa PAO1 assessed as potentiation of fosfomycin-induced antibacterial effect incubated for 18 hrs by checkerboard assay; assay type: functional, organism-based
Pseudomonas aeruginosa [18] = assay: Synergistic antibacterial activity against wild type Pseudomonas aeruginosa PAO1 assessed as potentiation of chloramphenicol-induced antibacterial effect incubated for 18 hrs by checkerboard assay; assay type: functional, organism-based
Pseudomonas aeruginosa [19] = assay: Synergistic antibacterial activity against wild type Pseudomonas aeruginosa PAO1 assessed as potentiation of clindamycin-induced antibacterial effect incubated for 18 hrs by checkerboard assay; assay type: functional, organism-based
Pseudomonas aeruginosa [20] = assay: Synergistic antibacterial activity against wild type Pseudomonas aeruginosa PAO1 assessed as potentiation of piperacillin-induced antibacterial effect incubated for 18 hrs by checkerboard assay; assay type: functional, organism-based
Pseudomonas aeruginosa [21] = assay: Synergistic antibacterial activity against wild type Pseudomonas aeruginosa PAO1 assessed as potentiation of novobiocin-induced antibacterial effect incubated for 18 hrs by checkerboard assay; assay type: functional, organism-based
Pseudomonas aeruginosa [22] = assay: Synergistic antibacterial activity against wild type Pseudomonas aeruginosa PAO1 assessed as potentiation of tobramycin-induced antibacterial effect at <= 7.1 uM incubated for 18 hrs by checkerboard assay; assay type: functional, organism-based
Pseudomonas aeruginosa [23] = assay: Synergistic antibacterial activity against wild type Pseudomonas aeruginosa PAO1 assessed as potentiation of vancomycin-induced antibacterial effect at <=7.1 uM incubated for 18 hrs by checkerboard assay; assay type: functional, organism-based
Pseudomonas aeruginosa [24] = assay: Synergistic antibacterial activity against wild type Pseudomonas aeruginosa PAO1 assessed as potentiation of colistin-induced antibacterial effect at <=7.1 uM incubated for 18 hrs by checkerboard assay; assay type: functional, organism-based
Pseudomonas aeruginosa [25] = assay: Antibacterial activity against wild type Pseudomonas aeruginosa PAO1 assessed as fractional inhibitory concentration index incubated for 18 hrs in presence of tobramycin by checkerboard assay; assay type: functional
Pseudomonas aeruginosa [26] = assay: Antibacterial activity against wild type Pseudomonas aeruginosa PAO1 assessed as fractional inhibitory concentration index incubated for 18 hrs in presence of colistin by checkerboard assay; assay type: functional
Pseudomonas aeruginosa [27] = assay: Synergistic antibacterial activity against wild type Pseudomonas aeruginosa PAO1 assessed as potentiation of rifampicin-induced antibacterial effect incubated for 18 hrs by checkerboard assay relative to rifampicin alone; assay type: functional
Pseudomonas aeruginosa [28] = assay: Synergistic antibacterial activity against wild type Pseudomonas aeruginosa PAO1 assessed as potentiation of minocycline-induced antibacterial effect incubated for 18 hrs by checkerboard assay relative to minocycline alone; assay type: functional
Pseudomonas aeruginosa [29] = assay: Synergistic antibacterial activity against wild type Pseudomonas aeruginosa PAO1 assessed as potentiation of cefotaxime-induced antibacterial effect incubated for 18 hrs by checkerboard assay relative to cefotaxime alone; assay type: functional
Pseudomonas aeruginosa [30] = assay: Synergistic antibacterial activity against wild type Pseudomonas aeruginosa PAO1 assessed as potentiation of doxycycline-induced antibacterial effect incubated for 18 hrs by checkerboard assay relative to doxycycline alone; assay type: functional
Pseudomonas aeruginosa [31] = assay: Synergistic antibacterial activity against wild type Pseudomonas aeruginosa PAO1 assessed as potentiation of linezolid-induced antibacterial effect incubated for 18 hrs by checkerboard assay relative to linezolid alone; assay type: functional
Pseudomonas aeruginosa [32] = assay: Synergistic antibacterial activity against wild type Pseudomonas aeruginosa PAO1 assessed as potentiation of meropenem-induced antibacterial effect incubated for 18 hrs by checkerboard assay relative to meropenem alone; assay type: functional
Pseudomonas aeruginosa [33] = assay: Synergistic antibacterial activity against wild type Pseudomonas aeruginosa PAO1 assessed as potentiation of moxifloxacin-induced antibacterial effect incubated for 18 hrs by checkerboard assay relative to moxifloxacin alone; assay type: functional
Pseudomonas aeruginosa [34] = assay: Synergistic antibacterial activity against wild type Pseudomonas aeruginosa PAO1 assessed as potentiation of ciprofloxacin-induced antibacterial effect incubated for 18 hrs by checkerboard assay relative to ciprofloxacin alone; assay type: functional
Pseudomonas aeruginosa [35] = assay: Synergistic antibacterial activity against wild type Pseudomonas aeruginosa PAO1 assessed as potentiation of levofloxacin-induced antibacterial effect incubated for 18 hrs by checkerboard assay relative to levofloxacin alone; assay type: functional
Pseudomonas aeruginosa [36] = assay: Synergistic antibacterial activity against wild type Pseudomonas aeruginosa PAO1 assessed as potentiation of aztreonam-induced antibacterial effect incubated for 18 hrs by checkerboard assay relative to aztreonam alone; assay type: functional
Pseudomonas aeruginosa [37] = assay: Synergistic antibacterial activity against wild type Pseudomonas aeruginosa PAO1 assessed as potentiation of ceftazidime-induced antibacterial effect incubated for 18 hrs by checkerboard assay relative to ceftazidime alone; assay type: functional
Pseudomonas aeruginosa [38] = assay: Synergistic antibacterial activity against wild type Pseudomonas aeruginosa PAO1 assessed as potentiation of fosfomycin-induced antibacterial effect incubated for 18 hrs by checkerboard assay relative to fosfomycin alone; assay type: functional
Pseudomonas aeruginosa [39] = assay: Synergistic antibacterial activity against wild type Pseudomonas aeruginosa PAO1 assessed as potentiation of chloramphenicol-induced antibacterial effect incubated for 18 hrs by checkerboard assay relative to chloramphenicol alone; assay type: functional
Pseudomonas aeruginosa [40] = assay: Synergistic antibacterial activity against wild type Pseudomonas aeruginosa PAO1 assessed as potentiation of clindamycin-induced antibacterial effect incubated for 18 hrs by checkerboard assay relative to clindamycin alone; assay type: functional
Pseudomonas aeruginosa [41] = assay: Synergistic antibacterial activity against wild type Pseudomonas aeruginosa PAO1 assessed as potentiation of novobiocin-induced antibacterial effect incubated for 18 hrs by checkerboard assay relative to novobiocin alone; assay type: functional
Pseudomonas aeruginosa [42] = assay: Synergistic antibacterial activity against wild type Pseudomonas aeruginosa PAO1 assessed as potentiation of piperacillin-induced antibacterial effect incubated for 18 hrs by checkerboard assay relative to piperacillin alone; assay type: functional

CC(C)(O/N=C(\C(=O)N[C@@H]1C(=O)N2C(C(=O)[O-])=C(C[n+]3ccccc3)CS[C@H]12)c1csc(N)n1)C(=O)O [CEFTAZIDIME]
1 mg/L: MIC (Acinetobacter baumannii [2])
16 mg/L: MIC (Acinetobacter baumannii [3]) | MIC (Acinetobacter baumannii [4])
32 mg/L: MIC (Acinetobacter baumannii [1])

CN(C)c1ccc(O)c2c1C[C@H]1C[C@H]3[C@H](N(C)C)C(O)=C(C(N)=O)C(=O)[C@@]3(O)C(O)=C1C2=O [MINOCYCLINE]
0.5 mg/L: MIC (Acinetobacter baumannii [1])
< 0.031 mg/L: MIC (Acinetobacter baumannii [2])
0.125 mg/L: MIC (Acinetobacter baumannii [3]) | MIC (Acinetobacter baumannii [4])

CO[C@H]1/C=C/O[C@@]2(C)Oc3c(C)c(O)c4c(O)c(c(/C=N/N5CCN(C)CC5)c(O)c4c3C2=O)NC(=O)/C(C)=C\C=C\[C@H](C)[C@H](O)[C@@H](C)[C@@H](O)[C@@H](C)[C@H](OC(C)=O)[C@@H]1C [RIFAMPIN]
< 0.031 mg/L: MIC (Acinetobacter baumannii [2])
2 mg/L: MIC (Acinetobacter baumannii [1]) | MIC (Acinetobacter baumannii [3]) | MIC (Acinetobacter baumannii [4])

NC[C@H]1O[C@H](O[C@H]2[C@H](OCCCCCCn3cc(CCCCO[C@@H]4[C@@H](O[C@H]5O[C@H](CO)[C@@H](O)[C@H](N)[C@H]5O)[C@H](N)C[C@H](N)[C@H]4O[C@H]4O[C@H](CN)[C@@H](O)C[C@H]4N)nn3)[C@@H](O[C@H]3O[C@H](CO)[C@@H](O)[C@H](N)[C@H]3O)[C@H](N)C[C@@H]2N)[C@H](N)C[C@@H]1O.O=C(O)C(F)(F)F.O=C(O)C(F)(F)F.O=C(O)C(F)(F)F.O=C(O)C(F)(F)F.O=C(O)C(F)(F)F.O=C(O)C(F)(F)F.O=C(O)C(F)(F)F.O=C(O)C(F)(F)F.O=C(O)C(F)(F)F.O=C(O)C(F)(F)F
inactive: Activity (Pseudomonas aeruginosa [22]) | Activity (Pseudomonas aeruginosa [23]) | Activity (Pseudomonas aeruginosa [24])
Non-Toxic: Activity (HEK293) | Activity (HepG2) | Activity (Erythrocyte) | Activity [8]
>4: fractional inhibitory concentration index (FICI) (Pseudomonas aeruginosa [25]) | fractional inhibitory concentration index (FICI) (Pseudomonas aeruginosa [26])
active: Activity (Pseudomonas aeruginosa [5]) Dose-dependent effect | Activity (Pseudomonas aeruginosa [6]) Dose-dependent effect | Activity (Pseudomonas aeruginosa [7]) Dose-dependent effect | Activity (Pseudomonas aeruginosa [9]) Dose-dependent effect | Activity (Pseudomonas aeruginosa [10]) Dose-dependent effect | Activity (Pseudomonas aeruginosa [11]) Dose-dependent effect | Activity (Pseudomonas aeruginosa [12]) Dose-dependent effect | Activity (Pseudomonas aeruginosa [13]) Dose-dependent effect | Activity (Pseudomonas aeruginosa [14]) Dose-dependent effect | Activity (Pseudomonas aeruginosa [15]) Dose-dependent effect | Activity (Pseudomonas aeruginosa [16]) Dose-dependent effect | Activity (Pseudomonas aeruginosa [17]) Dose-dependent effect | Activity (Pseudomonas aeruginosa [18]) Dose-dependent effect | Activity (Pseudomonas aeruginosa [19]) Dose-dependent effect | Activity (Pseudomonas aeruginosa [20]) Dose-dependent effect | Activity (Pseudomonas aeruginosa [21]) Dose-dependent effect
4 - 128: fold change (FC) (Pseudomonas aeruginosa [27]) | fold change (FC) (Pseudomonas aeruginosa [28]) | fold change (FC) (Pseudomonas aeruginosa [29]) | fold change (FC) (Pseudomonas aeruginosa [30]) | fold change (FC) (Pseudomonas aeruginosa [31]) | fold change (FC) (Pseudomonas aeruginosa [32]) | fold change (FC) (Pseudomonas aeruginosa [33]) | fold change (FC) (Pseudomonas aeruginosa [34]) | fold change (FC) (Pseudomonas aeruginosa [35]) | fold change (FC) (Pseudomonas aeruginosa [36]) | fold change (FC) (Pseudomonas aeruginosa [37]) | fold change (FC) (Pseudomonas aeruginosa [38]) | fold change (FC) (Pseudomonas aeruginosa [39]) | fold change (FC) (Pseudomonas aeruginosa [40]) | fold change (FC) (Pseudomonas aeruginosa [41]) | fold change (FC) (Pseudomonas aeruginosa [42])
